According to patent publication US20250282895A1, “PHARMACEUTICAL COMPOSITIONS OF CHEMOTHERAPEUTIC AGENTS BASED ON BETA-S[…]-AMINO ACID DERIVATIVES” (priority 2021, published 2025):
Counter-ions that a name gives are not always drawn.

Test: Comparative stability, Formulation 3 (based on Evomela, SBE6.5-β-CD)
Type: physicochemical
Description: The stability of Compound (1c) either as the HCl salt or as the free base was compared to the stability of melphalan HCl and/or bendamustine HCl in various pharmaceutical formulations and at different concentrations and at temperatures of 0° C. or 25° C.
The stability of the compounds in the pharmaceutical formulations was determined at concentrations within the range from 0.4 mg/mL to 0.5 mg/mL, from 0.9 mg/mL to 1.1 mg/mL, and from 1.8 mg/mL to 2.1 mg/mL.
The amount of the active pharmaceutical ingredient (API) (Compound (1c), melphalan or bendamustine) in the pharmaceutical formulations at different times during storage was determined using HPLC/UV as described in detail for Example 4 and Example 5.
Evomela® is an injectable formulation of melphalan hydrochloride, 4-[bis(2-chloroethyl)amino]-L-phenylalanine hydrochloride, approved by the FDA. Evomela® is supplied as a sterile white to off-white lyophilized powder in a single-dose vial for intravenous use. Each vial containing 50 mg melphalan free base equivalent to 56 mg melphalan hydrochloride and 2,700 mg betadex sulfobutyl ether (SBE6.5-β-CD; sulfobutyl ether β-cyclodextrin sodium) sodium, NF. Normal saline solution (0.9% Sodium Chloride Injection, USP) (8.6 mL as directed) is used to reconstitute Evomela® to a total of 10 mL having a 5 mg/mL nominal concentration of melphalan. The required volume of Evomela® needed for a patient dose is withdrawn from the vial(s) and added to the appropriate volume of 0.9% Sodium Chloride Injection, USP, to a final nominal concentration of 0.45 mg/mL of melphalan. This solution is then infused via an injection port or central venous catheter.
A series of 12 mL glass vials each containing 5.5 mg (0.0165 mmol of Compound (1c) free base and 270 mg of SBE6.5-β-CD, Captisol®) were prepared as described in Example 4.
The cyclodextrin derivative/Compound (1c) free base guest-host inclusion complex was reconstituted by dissolving the guest-host inclusion complex in 0.86 mL of 0.9% saline to provide 1.0 mL of a solution having a nominal concentration of 5.5 mg/mL of Compound (1c) free base.
(§1) A 1.0 mL aliquot of this solution was diluted with 10.0 mL of 0.9% saline, and the pH adjusted with 5 μL of a saturated aqueous NaHCO3 solution to provide 11.0 mL of a clear, colorless solution having a nominal concentration of 0.50 mg/mL of Compound (1c) from Compound (1c) free base and a pH from 5.8 to 6.1.
as §1, with “4.5” for “10.0”, “5.5” for “11.0”, “1.0” for “0.50”, “of about” for “from 5.8 to”
as §1, with “1.75” for “10.0”, “2.75” for “11.0”, “2.0” for “0.50”, “of about” for “from 5.8 to”
A series of 12 mL glass vials each containing 6.1 mg (0.0165 mmol of Compound (1c) mono-hydrochloride salt (corresponding to 5.5 mg of Compound (1c) free base) and 270 mg of SBE6.5-β-CD, Captisol®) were prepared as described in Example 5.
The cyclodextrin derivative/Compound (1c) mono-HCl salt guest-host inclusion complex was reconstituted by dissolving the guest-host inclusion complex in 0.86 mL of 0.9% saline to provide 1.0 mL of a solution having a nominal concentration of 6.1 mg/mL of Compound (1c) mono-HCl salt (corresponding to a nominal concentration of 5.5 mg/mL of the Compound (1c) free base).
as §1, with “0.5” for “1.0”, “5.0” for “10.0”, “5.5” for “11.0”, “mono-hydrochloride” for “free base”, “5.3” for “5.8”, “5.5. […]” for “6.1.”

[1] = Formulation 3, 0° C., 0.5 hours, 0.4-0.5 mg/mL, pH 5.8-6.1 (melphalan), pH 5-6 (Compound (1c)•HCl)
[2] = Formulation 3, 0° C., 2.0 hours, 0.4-0.5 mg/mL, pH 5.8-6.1 (melphalan), pH 5-6 (Compound (1c)•HCl)

Row | SMILES | % API [1] | % API (Formulation 3, 0° C., 0.5 hours, 0.9-1.1 mg/mL, pH 5-6) | % API (Formulation 3, 0° C., 0.5 hours, 1.8-2.1 mg/mL, pH 5-6) | % API [2] | % API (Formulation 3, 0° C., 2.0 hours, 0.9-1.1 mg/mL, pH 5-6) | % API (Formulation 3, 0° C., 2.0 hours, 1.8-2.1 mg/mL, pH 5-6) | % API (Formulation 3, 25° C., 0.5 hours, 0.4-0.5 mg/mL, pH 5.8-6.1 (melphalan), pH 5-6 (Compound (1c)•HCl), mono hydrochloride salt) | % API (Formulation 3, 25° C., 0.5 hours, 0.9-1.1 mg/mL, pH 5-6 (Compound (1c)•HCl), mono hydrochloride salt) | % API (Formulation 3, 25° C., 0.5 hours, 1.8-2.1 mg/mL, pH 5-6 (Compound (1c)•HCl)) | % API (Formulation 3, 25° C., 2.0 hours, 0.4-0.5 mg/mL, pH 5.8-6.1 (melphalan), pH 5-6 (Compound (1c)•HCl), mono hydrochloride salt) | % API (Formulation 3, 25° C., 2.0 hours, 0.9-1.1 mg/mL, pH 5-6 (Compound (1c)•HCl), mono hydrochloride salt) | % API (Formulation 3, 25° C., 2.0 hours, 1.8-2.1 mg/mL, pH 5-6 (Compound (1c)•HCl), mono hydrochloride salt) | % API (Formulation 3, 25° C., 0.5 hours, 0.4-0.5 mg/mL, pH 5.8-6.1 (melphalan), pH 5-6 (Compound (1c)•HCl)) | % API (Formulation 3, 25° C., 2.0 hours, 0.4-0.5 mg/mL, pH 5.8-6.1 (melphalan), pH 5-6 (Compound (1c)•HCl))
1 | Cc1ccc(N(CCCl)CCCl)cc1C[C@H](N)CC(=O)O [Compound (1c)•HCl, (S)-3-amino-4-(5-(bis(2-chloroethyl)amino)-2-methylphenyl) butanoic acid mono hydrochloride salt] | 97% | 97% | 100% | 97% | 91% | 99% | 97% | 97% | 100% | 97% | 91% | 99% | – | –
2 | Cl.N[C@@H](Cc1ccc(N(CCCl)CCCl)cc1)C(=O)O [Melphalan•HCl, 4-[bis(2-chloroethyl)amino]-L-phenylalanine hydrochloride, reference compound] | 97% | – | – | 92% | – | – | – | – | – | – | – | – | 97% | 92%
